Test results as given in patent publication EP1024807B1, “USE OF THE COMPOUND 2-METHOXYPHENYL-1-METHYL-5P-METHYLBENZOYL-PYRROL-2-ACETAMIDO ACETATE FOR THE PRODUCTION OF AN ANTI-INFLAMMATORY DRUG WITH PREVENTION OF GASTRIC HYPERSECRETION AND RENAL IMPAIRMENT” (MEDOSAN Ricerca S.r.l., priority 1997, dated 1999).

Columns and labels:
[1] = test system: Saccharomycetes D4; experiment: Mitotic conversion test; assay type: cell-based
[2] = target: T1, H2 receptors (Cavia porcellus, UniProt P47747); experiment: Isolated atrium, histamine stimulation; settings: guinea-pig atrium, fig. 5
T1 construct: using an organ in which only H2 receptors were present (guinea-pig atrium); from tissue; host or cells: guinea-pig atrium
Source text: (§1) On the basis of the above series of observations, we decided to study the pharmacological behaviour of a number of widely used NSAIDs (including amtolmetin guacyl) towards the gastric mucosa in the rat, as previously described. […] The first hypothesis was that we were deling with an anti-H2 drug, given the fact that its potency could be compared with that of cimetidine.

[3] = test system: rat; experiment: Fertility, embryotoxicity and teratogenicity studies; assay type: in vivo
[4] = test system: rat bone marrow; experiment: Micronucleus test; settings: in vivo
[5] = test system: patients; experiment: Clinical trials: tolerability, adverse events and suspensions of treatment; assay type: in vivo, man; settings: in vivo
Source text: Interest in the amtolmetin guacyl molecule arose following a thorough analysis of the results of 31 comparative and 6 non-comparative clinical trials involving 1596 patients. […] Turthermore the physician, being aware of administering an NSAID, was expecting adverse events and could not be expected to be an impartial observer. The few cases of gastro-intestinal phenomena reported with amtolmetin guacyl were transitory and in no event accompanied by the presence of occult blood in the stools. Moreover, even in the presence of a reported side-effect it was almost never necessary to suspend treatment (0.4% of suspensions).
Following are summarized the results obtained on a total of 1596 patients in 37 clinical trials.
Confirmation of the above described advantages is the very low incidence of treatment suspension for adverse events found in clinics (Table 17), which is not the case for most of NSAIDs known in the art (Table 18).

[6] = test system: post-traumatic arthralgia; experiment: Clinical comparison in post-traumatic arthralgia; assay type: in vivo, man
Source text: The same can be said in the treatment of post-traumatic arthralgia.

[7] = test system: gastric acid secretion; experiment: Gastric acid secretion in the rat; assay type: in vivo
Source text: as §1
The introduction of a guaiacol moiety into the amtolmetin guacyl molecule led to the insertion of a vanilloid radical which confers gastroprotective properties to the molecule.

[8] = test system: Rats; experiment: Adjuvant arthritis (joint diameter and patellar bone mass); assay type: in vivo; settings: for Swelling Diameter difference (L-R) / Joint diameter (mm) Left / Joint diameter (mm) Right: day 0-3; for Joint diameter (mm) Left / Bone mass (mg) Left: left = arthritic joint; for Joint diameter (mm) Right / Bone mass (mg) Right: right = saline control joint; for % Change: ([left-right]/right)X100; for Bone loss Left-Right / Bone mass (mg) Left / Bone mass (mg) Right: patellar bone
Procedure: The drugs were administered daily by oral gavage for 4 days (day 0-3); piroxicam and MED 15 were dissolved in 5% Gum arabic + 0.01% Tween 80, and administered in a volume of 0.5ml. Piroxicam was administered as 3mg/kg and MED 15 was administered as 25, 50 and 100mg/kg doses. Table 8 bis illustrating dosage regimes. L=left stifle joint, R=Right stifle joint.
Under halothane anaesthesia, rats received 200µg of heat-killed finely ground Mycobactyerium tubercolosis in 25µl (80mg/10ml sterile saline) injected intra-articulary into the left stifle joint. The contralateral joint received 25µl 0.9% sterile saline. Control animals received 25µl of 0.9% sterile saline in both knees. SGE 50µl microsyringes with a volume lock calibrated at 25µl were used with 30G stainless steel needles. Solutions were prepared sterile, and aseptic technique was used throughout, with sterilisation of syringes between groups.
The rats were killed by carbon dioxide suffocation. The body weight was noted and the skin overlying the stifle joints was divided and the joint diameters assessed in mm using Mitutoyo vernier callipers (530-312, 0.02mm).
The patellae were dissected, weighed (Sartorius, 0.01mg) and then immersed in 1ml digestion buffer (see below) to remove soft tissue.
Digestive buffer was prepared fresh to the following formula; disodium hydrogen orthophosphate 20mM, EDTA 1mM and diothiothreitol at 2mM. Papain (EC 3.4.22.2) was added at a concentration of 6U/ml. Each patella was digested in 1ml of digestive buffer at 56°C for 4 hours. The residual paterllar bones were dried (100°C 24 hours) and weighed (Sartorius 0.01mg).
Results are presented as follows: left and right parameter alone, the difference between arthritic and contralateral control joint (left-right); and % difference between arthritic and control joints ([left-right]/right]X100).
Calculations were carried out using the spreadsheet program Lotus 123. Statistical comparisons were made between the absolute differences using INSTAT Mann Whitney unpaired two-tailed statistical test.

[9] = Acute toxicity studies; settings: in vivo
[10] = test system: Salmonella Typhimurium; assay type: cell-based
[11] = test system: gastric mucosa; experiment: Gastroprotective action in vivo with an H1 receptor inhibitor; design: species or system rat; settings: in the presence of an inhibitor of H1 receptors, fig. 17 and 18
Source text: In the in vivo experimentation, evaluated as effect of the product both on gastric mucosal secretion and on the healthy condition of the mucosa itself, it was noted that in the presence of an inhibitor of H1 receptors (therefore a typical antihistamine agent), the gastroprotective effect of amtolmetin guacyl drops out. […] All of this constitutes a precise forewarning of the association of amtolmetin guacyl with H1 receptor inhibiting substances on pain of loss of the gastroprotective properties of the former (fig. 17 and 18).

[12] = target: T2, COX2 (cyclooxygenase 2) (Rattus norvegicus, UniProt P35355); experiment: Pharmacological studies in rats: cyclooxygenase inhibition; settings: in vivo
T2 construct: the pharmacological studies conducted in rats; from tissue; host or cells: rat (in vivo; tissue not given)

[13] = test system: Saccharomycetes pombe Pl; assay type: cell-based

T2 sequence (P35355 18-604): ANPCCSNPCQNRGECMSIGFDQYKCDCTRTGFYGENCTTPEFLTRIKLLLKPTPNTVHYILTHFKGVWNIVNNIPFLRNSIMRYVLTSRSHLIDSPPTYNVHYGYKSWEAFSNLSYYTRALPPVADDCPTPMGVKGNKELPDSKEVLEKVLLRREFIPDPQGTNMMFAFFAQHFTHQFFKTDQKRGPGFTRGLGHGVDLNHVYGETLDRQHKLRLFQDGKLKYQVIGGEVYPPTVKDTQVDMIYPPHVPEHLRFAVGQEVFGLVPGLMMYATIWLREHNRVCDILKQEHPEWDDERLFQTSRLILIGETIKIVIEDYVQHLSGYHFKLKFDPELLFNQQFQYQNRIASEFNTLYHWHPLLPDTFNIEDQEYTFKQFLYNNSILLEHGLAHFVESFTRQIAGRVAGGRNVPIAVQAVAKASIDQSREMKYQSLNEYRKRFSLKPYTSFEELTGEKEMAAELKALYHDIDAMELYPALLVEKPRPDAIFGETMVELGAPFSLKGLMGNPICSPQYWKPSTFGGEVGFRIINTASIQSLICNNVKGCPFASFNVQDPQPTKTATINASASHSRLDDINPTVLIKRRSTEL
T1 sequence (P47747 whole entry): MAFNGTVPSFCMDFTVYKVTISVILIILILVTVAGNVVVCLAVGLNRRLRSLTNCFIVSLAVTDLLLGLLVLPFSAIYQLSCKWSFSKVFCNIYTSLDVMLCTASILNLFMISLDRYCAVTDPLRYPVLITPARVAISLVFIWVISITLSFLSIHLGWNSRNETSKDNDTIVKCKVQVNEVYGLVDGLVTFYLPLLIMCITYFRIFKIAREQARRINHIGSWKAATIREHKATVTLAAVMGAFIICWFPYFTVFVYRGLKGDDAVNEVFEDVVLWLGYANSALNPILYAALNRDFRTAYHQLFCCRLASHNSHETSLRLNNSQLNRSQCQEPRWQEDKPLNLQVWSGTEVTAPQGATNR

For `COc1ccccc1OC(=O)CNC(=O)Cc1ccc(C(=O)c2ccc(C)cc2)n1C` [MED 15, 2-methoxyphenyl-1-methyl-5p-methylbenzoylpyrrol-2-acetamido acetate], the mitotic conversion [1] was “absence of amtolmetin guacyl-related damage”, the “interference with the H2 receptors” value [2] was “did not interfere with the H2 receptors” and the “fertility, embriotoxicity and teratogenicity” value [3] was “safety”. The micronucleus test [4] was “absence of amtolmetin guacyl-related damage”, the Treatment suspended ([5]; human) was 4 and the “incidence of adverse events involving the stomach” value ([5]; human) was ~5%. For the same molecule, the “reports of gastric discomfort” value ([5]; human) was 4%, the Treatment suspended ([5]; human, 10 days) was 3 and the Treatment suspended % ([5]; human, 10 days) was 1,6%. The Treatment suspended ([5]; human, 21 days) was 0, the Treatment suspended ([5]; human, 30 days) was 1 and the Treatment suspended % ([5]; human, 30 days) was 0,7%. It also gave a Treatment suspended ([5]; human, 60 days) of 0, a Treatment suspended ([5]; human, 90 days) of 0 and a Treatment suspended ([5]; human, 120 days) of 0. The Treatment suspended ([5]; human, 150 days) was 0, the Treatment suspended ([5]; human, 180 days) was 0 and the gastric lesions [5] was “not to induce gastric lesions”. For the same molecule, the “variations of the routine biological parameters” value [5] was “no significant variations”, the duration of effect [6] was 6 h and the latency time [6] was 20 min. For the same molecule, the “time to reach peak effect” value [6] was 1 h, the basal acid secretion ([7]; basal, unstimulated) was “fails to modify” and the “effect on gastric acid” value ([7]; rat, in vivo) was “reduction of gastric acid”. The “activity on gastric secretion after CGRP antagonist” value ([7]; with CGRP8-37, peptone-stimulated, fig. 14) was “blockage”, the “effect on gastric acid secretion after capsaicin receptor antagonist” value ([7]; with capsazepine, peptone-stimulated, fig. 16) was “inhibited by the capsazepine antagonist” and the “Swelling Diameter difference (L-R)” value ([8]; 25mg/kg daily oral) was 2.22 mm. For the same molecule, the “Joint diameter (mm) Left” value ([8]; 25mg/kg daily oral) was 11.57 mm, the “Joint diameter (mm) Right” value ([8]; 25mg/kg daily oral) was 9.35 mm and the “Swelling Diameter difference (L-R)” value ([8]; 50mg/kg daily oral) was 2.06 mm. For the same molecule, the “Joint diameter (mm) Left” value ([8]; 50mg/kg daily oral) was 10.95 mm, the “Joint diameter (mm) Right” value ([8]; 50mg/kg daily oral) was 8.88 mm and the “Swelling Diameter difference (L-R)” value ([8]; 100mg/kg daily oral) was 1.38 mm. The “Joint diameter (mm) Left” value ([8]; 100mg/kg daily oral) was 10.26 mm, the “Joint diameter (mm) Right” value ([8]; 100mg/kg daily oral) was 8.88 mm and the “protective effect against bone loss compared to piroxicam” value ([8]; dose of 100mg/kg) was “not significantly different to piroxicam”. The “% Change” value ([8]; joint diameter, 25mg/kg daily oral) was 24.04%, the “% Change” value ([8]; joint diameter, 50mg/kg daily oral) was 23.36% and the “% Change” value ([8]; joint diameter, 100mg/kg daily oral) was 15.71%. For the same molecule, the “% Change” value ([8]; patellar bone mass, 25mg/kg daily oral) was 45.45%, the “% Change” value ([8]; patellar bone mass, 50mg/kg daily oral) was 40.55% and the “% Change” value ([8]; patellar bone mass, 100mg/kg daily oral) was 31.85%. For the same molecule, the “protection against bone loss” value ([8]; patellar bone mass, arthritic groups) was “dose dependent protective effect”, the “Bone loss Left-Right” value ([8]; 25mg/kg daily oral) was -1.94 mg and the “Bone mass (mg) Left” value ([8]; 25mg/kg daily oral) was 2.33 mg. For the same molecule, the “Bone mass (mg) Right” value ([8]; 25mg/kg daily oral) was 4.27 mg, the “Bone loss Left-Right” value ([8]; 50mg/kg daily oral) was -1.69 mg and the “Bone mass (mg) Left” value ([8]; 50mg/kg daily oral) was 2.49 mg. For the same molecule, the “Bone mass (mg) Right” value ([8]; 50mg/kg daily oral) was 4.18 mg, the “Bone loss Left-Right” value ([8]; 100mg/kg daily oral) was -1.38 mg and the “Bone mass (mg) Left” value ([8]; 100mg/kg daily oral) was 2.97 mg. The “Bone mass (mg) Right” value ([8]; 100mg/kg daily oral) was 4.34 mg, the “acute toxicity, tolerability” value [9] was “excellent drug tolerability” and the Ames test [10] was “absence of amtolmetin guacyl-related damage”. For the same molecule, the gastroprotective effect [11] was “drops out”, the “inhibition of COX2” value [12] was “inhibition” and the forward mutation [13] was “absence of amtolmetin guacyl-related damage”.
